Target: ERRα ligand binding domain (ERRα-LBD) (Homo sapiens (Human), UniProt P11474)
Assay: ERRα AlphaScreen Assay
Assay type: biochemical
Conditions: disruption of binding of ERRα-LBD protein to biotin-PGC1α-3 co-activator peptide; for IC50: read-out: mean pIC50 (converted)
Source text: This assay was based on the knowledge that nuclear receptors interact with cofactors in a ligand dependent matter. The sites of interaction have been mapped to LXXLL motifs that are present in the co-activator sequences. Short peptide sequences that contain the LXXLL motif mimic the behavior of full length co-activators.
The ERRα AlphaScreen Assay described here relies on the interaction of the co-activator peptide with purified bacterial-expressed ERRα ligand binding domain (ERRα-LBD); upon ligand binding the ERRα protein can undergo a conformational change resulting in a loss of co-activator binding.
Compounds of the present invention were tested for their ability to disrupt binding of ERRα-LBD protein to co-activator peptide using AlphaScreen® Technology (Perkin Elmer). ERRα-LBD protein was expressed in E. coli as a 6×His Small Ubiquitin-like Modifier (SUMO) fusion. Bacterial expressed 6His-SUMO-ERRα-LBD protein was purified using affinity chromatography. All experiments were performed at room temperature in 384-well white non-binding plates (Greiner) using 50 mM Tris-HCl pH 7.5, 100 mM NaCl, 0,1% Pluronic F-127, 0.05% BSA and 5 mM TCEP as the buffer. Final DMSO concentration was 1% in the assay. Compounds were assayed in triplicate and: incubated with 0.81 nM ERRα-LBD protein and 10 μg/mL streptavidin donor beads and 10 μg/mL Ni-chelate acceptor beads for 1 hour at room temperature; followed by a 2-hour incubation with 15 nM biotin-PGC1α-3 peptide (QRRPCSELLKYLTTNDDPP) corresponding to amino acids 202 to 220.
The AlphaScreen signal was measured using an Envision Xcite plate reader (Perkin Elmer). Data was normalized, and curve fitting analysis was performed in GraphPad Prism 7 using a four-parameter dose-response fit.
As multiple IC50 values were annotated for the same compound-protein pair, a mean pIC50 for each compound was determined.

Chain of ERRα ligand binding domain (ERRα-LBD) (P11474 193-421): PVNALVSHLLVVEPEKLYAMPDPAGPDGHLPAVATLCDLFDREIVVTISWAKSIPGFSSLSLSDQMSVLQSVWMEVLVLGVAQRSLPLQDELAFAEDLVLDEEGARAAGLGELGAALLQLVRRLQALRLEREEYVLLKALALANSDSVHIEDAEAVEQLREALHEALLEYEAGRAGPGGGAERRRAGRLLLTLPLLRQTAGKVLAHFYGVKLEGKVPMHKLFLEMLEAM

Question: How did the “mean pIC50” value turn out when `COc1cc(-c2cc(=O)[nH]c3n[nH]cc23)ccc1OCc1ccccc1OC(F)F` [Example 180, 4-(4-{[2-(difluoromethoxy)phenyl]methoxy}-3-methoxyphenyl)-2H,6H, 7H-pyrazolo[3,4-b]pyridin-6-one] was run?
Answer: Its value is no less than 8.

Question: How did the IC50 turn out when `O=C1CC(c2ccc(OCc3ccccc3C(F)(F)F)c(C(F)(F)F)c2)c2c[nH]nc2N1` (centres unmarked) [Example 76, 4-[3-(trifluoromethyl)-4-{[2-(trifluoromethyl)phenyl]methoxy}phenyl]-2H,4H,5H,6H, 7H-pyrazolo[3,4-b]pyridin-6-one] was run?
Answer: Its IC50 is 100 to 1000 nM.

Question: With `CCOC(=O)c1cc(C2CC(=O)Nc3n[nH]cc32)ccc1OCc1ccccc1C(F)(F)F` (centres unmarked) [Example 128, ethyl 5-{6-oxo-2H,4H,5H,6H,7H-pyrazolo[3,4-b]pyridin-4-yl}-2-{[2-(trifluoromethyl)phenyl]methoxy}benzoate] as the compound, how does the IC50 read?
Answer: Its IC50 is 10 to 100 nM.

Question: For `COc1cc(C2CC(=O)Nc3n[nH]cc32)ccc1OCc1ccc(C(N)=O)cc1C(F)(F)F` (centres unmarked) [Example 121, 4-(2-methoxy-4-{6-oxo-2H,4H,5H,6H, 7H-pyrazolo[3,4-b]pyridin-4-yl}phenoxymethyl)-3-(trifluoromethyl)benzamide], which IC50 is on record?
Answer: Its IC50 is 100 to 1000 nM.

Question: For `O=C1CC(c2ccc(OCc3ccccc3C(F)(F)F)c(C(=O)Nc3nnc[nH]3)c2)c2c[nH]nc2N1` (centres unmarked) [Example 131, 5-{6-oxo-2H, 4H,5H, 6H, 7H-pyrazolo[3,4-b]pyridin-4-yl}-N-(4H-1,2,4-triazol-3-yl)-2-{[2-(trifluoromethyl)phenyl]methoxy}benzamide], which IC50 is on record?
Answer: Its IC50 is 100 to 1000 nM.

Question: Which IC50 does the source give for `COc1cc(C2CC(=O)Nc3n[nH]cc32)ccc1COc1ccc(C)cc1C(F)(F)F` (single isomer, unassigned; (+)) [Example 213, (+)-4-(3-methoxy-4-{[4-methyl-2-(trifluoromethyl)phenoxy]methyl}phenyl)-2H,4H,5H,6H,7H-pyrazolo[3,4-b]pyridin-6-one] here?
Answer: The IC50 was 10 to 100 nM.

Question: For `COc1cc(C2CC(=O)Nc3n[nH]cc32)cc(F)c1OCc1ccccc1C(F)(F)F` (centres unmarked) [Example 78, 4-(3-fluoro-5-methoxy-4-{[2-(trifluoromethyl)phenyl]methoxy}phenyl)-2H,4H,5H,6H, 7H-pyrazolo[3,4-b]pyridin-6-one], which IC50 is on record?
Answer: Its IC50 is 100 to 1000 nM.

Question: With `COc1cc(C2CC(=O)Nc3n[nH]cc32)ccc1OCc1cccc2c1OC(C)(C)C2` (centres unmarked) [Example 46, 4-{4-[(2,2-dimethyl-2,3-dihydro-1-benzofuran-7-yl)methoxy]-3-methoxyphenyl}-2H,4H,5H,6H, 7H-pyrazolo[3,4-b]pyridin-6-one] as the compound, how does the IC50 read?
Answer: The IC50 was 100 to 1000 nM.

Question: How did the “mean pIC50” value turn out when `COc1cc(C2CC(=O)Nc3n[nH]cc32)ccc1COc1ccc(C(F)F)cc1C(F)F` (single isomer, unassigned; (-)) [Example 218, (−)-4-(4-{[2,4-bis(difluoromethyl)phenoxy]methyl}-3-methoxyphenyl)-2H,4H,5H,6H,7H-pyrazolo[3,4-b]pyridin-6-one] was run?
Answer: Its value is no less than 8.

Question: How did the IC50 turn out when `COc1cc(C2CC(=O)Nc3n[nH]cc32)ccc1COc1ccc(Cl)cc1C(F)(F)F` (single isomer, unassigned; (+)) [Example 193, (+)-4-(4-{[4-chloro-2-(trifluoromethyl)phenoxy]methyl}-3-methoxyphenyl)-2H,4H,5H,6H,7H-pyrazolo[3,4-b]pyridin-6-one] was run?
Answer: Its IC50 is 10 to 100 nM.

Question: For `COc1cc(C2CC(=O)Nc3n[nH]cc32)ccc1COc1ccc(C(F)F)cc1C(F)F` (centres unmarked) [Example 116, 4-(4-{[2,4-bis(difluoromethyl)phenoxy]methyl}-3-methoxyphenyl)-2H,4H,5H,6H,7H-pyrazolo[3,4-b]pyridin-6-one], which IC50 is on record?
Answer: Its IC50 is 10 to 100 nM.

Question: With `O=C1CC(c2ccc(COc3ccc(C(F)(F)F)cc3C(F)(F)F)c(OC(F)(F)F)c2)c2c[nH]nc2N1` (centres unmarked) [Example 109, 4-(4-{[2,4-bis(trifluoromethyl)phenoxy]methyl}-3-(trifluoromethoxy)phenyl)-2H,4H,5H,6H,7H-pyrazolo[3,4-b]pyridin-6-one] as the compound, how does the IC50 read?
Answer: Its IC50 is 10 to 100 nM.

Question: `COc1cc(C2CC(=O)Nc3n[nH]cc32)ccc1OCc1ccccc1C(F)F` (centres unmarked) [Example 49, 4-(4-{[2-(difluoromethyl)phenyl]methoxy}-3-methoxyphenyl)-2H,4H,5H,6H, 7H-pyrazolo[3,4-b]pyridin-6-one] was tested. Which IC50 did it give?
Answer: Its IC50 is 100 to 1000 nM.

Question: With `COc1cc(C2CC(=O)Nc3n[nH]cc32)ccc1COc1cc(C)cc(C(F)(F)F)c1` (centres unmarked) [Example 114, 4-(3-methoxy-4-{[3-methyl-5-(trifluoromethyl)phenoxy]methyl}phenyl)-2H,4H,5H,6H,7H-pyrazolo[3,4-b]pyridin-6-one] as the compound, how does the IC50 read?
Answer: The IC50 was 100 to 1000 nM.

Question: With `COc1cc(C2CC(=N)Nc3n[nH]cc32)ccc1OCc1ccccc1C(F)(F)F` (centres unmarked) [Example 167, 4-(3-methoxy-4-{[2-(trifluoromethyl)phenyl]methoxy}phenyl)-2H,4H,5H,6H, 7H-pyrazolo[3,4-b]pyridin-6-imine] as the compound, how does the IC50 read?
Answer: Its IC50 is 100 to 1000 nM.

Question: With `COc1cc(C2CC(=O)Nc3n[nH]cc32)ccc1OCc1ccc([N+](=O)[O-])cc1C(F)(F)F` (centres unmarked) [Example 34, 4-(3-methoxy-4-{[4-nitro-2-(trifluoromethyl)phenyl]methoxy}phenyl)-2H,4H,5H,6H,7H-pyrazolo[3,4-b]pyridin-6-one] as the compound, how does the IC50 read?
Answer: The IC50 was 10 to 100 nM.

Question: With `COc1cc(C2CC(=O)Nc3n[nH]cc32)ccc1OCc1ccc(NC(C)=O)cc1C(F)(F)F` (centres unmarked) [Example 139, N-{4-[(2-methoxy-4-{6-oxo-2H,4H,5H,6H,7H-pyrazolo[3,4-b]pyridin-4-yl}phenoxy)methyl]-3-(trifluoromethyl)phenyl}acetamide] as the compound, how does the IC50 read?
Answer: The IC50 was 10 to 100 nM.

Question: Which IC50 does the source give for `COC(=O)C1C(=O)Nc2n[nH]cc2C1c1ccc(COc2ccc(C(F)(F)F)cc2C(F)(F)F)c(OC)c1` (centres unmarked) [Example 187, methyl 4-(4-{[2,4-bis(trifluoromethyl)phenoxy]methyl}-3-methoxyphenyl)-6-oxo-2H,4H,5H,6H, 7H-pyrazolo[3,4-b]pyridine-5-carboxylate] here?
Answer: The IC50 was 100 to 1000 nM.

Question: `COc1cc(C2CC(=O)Nc3n[nH]cc32)ccc1OCc1ccc(C(C)=O)cc1C(F)(F)F` (single isomer, unassigned; (+)) [Example 199, (+)-4-(4-{[4-acetyl-2-(trifluoromethyl)phenyl]methoxy}-3-methoxyphenyl)-2H,4H,5H,6H,7H-pyrazolo[3,4-b]pyridin-6-one] was tested. Which IC50 did it give?
Answer: Its IC50 is 100 to 1000 nM.

Question: Which IC50 does the source give for `COc1cc(C2CC(=O)Nc3n[nH]cc32)ccc1COc1ccc(C(F)F)cc1C(F)F` (single isomer, unassigned; (+)) [Example 217, (+)-4-(4-{[2,4-bis(difluoromethyl)phenoxy]methyl}-3-methoxyphenyl)-2H,4H,5H,6H,7H-pyrazolo[3,4-b]pyridin-6-one] here?
Answer: Its IC50 is 100 to 1000 nM.

Question: `COc1ccc([N+](=O)[O-])cc1COc1ccc(C2CC(=O)Nc3n[nH]cc32)cc1OC` (centres unmarked) [Example 25, 4-{3-methoxy-4-[(2-methoxy-5-nitrophenyl)methoxy]phenyl}-2H,4H,5H,6H,7H-pyrazolo[3,4-b]pyridin-6-one] was tested. Which IC50 did it give?
Answer: The IC50 was 100 to 1000 nM.

Question: `COc1cc(C2CC(=O)Nc3n[nH]cc32)ccc1OCc1cc(Cl)ccc1Cl` (centres unmarked) [Example 29, 4-{4-[(2,5-dichlorophenyl)methoxy]-3-methoxyphenyl}-2H,4H,5H,6H, 7H-pyrazolo[3,4-b]pyridin-6-one] was tested. Which IC50 did it give?
Answer: Its IC50 is 100 to 1000 nM.

Question: With `COc1cc(C2CC(=O)Nc3n[nH]cc32)ccc1COc1cc(C(F)F)cc(C(F)(F)F)c1` (centres unmarked) [Example 118, 4-(4-{[3-(difluoromethyl)-5-(trifluoromethyl)phenoxy]methyl}-3-methoxyphenyl)-2H,4H,5H,6H,7H-pyrazolo[3,4-b]pyridin-6-one] as the compound, how does the IC50 read?
Answer: Its IC50 is 100 to 1000 nM.

Question: Which IC50 does the source give for `COc1cc(-c2cc(=O)[nH]c3[nH]ccc23)ccc1OCc1ccccc1C(F)(F)F` [Example 168, 4-(3-methoxy-4-{[2-(trifluoromethyl)phenyl]methoxy}phenyl)-1H,6H, 7H-pyrrolo[2,3-b]pyridin-6-one] here?
Answer: The IC50 was 100 to 1000 nM.

Question: `COc1cc(C2CC(=O)Nc3nn(C)cc32)ccc1OCc1ccccc1C(F)(F)F` (centres unmarked) [Example 80, 4-(3-methoxy-4-{[2-(trifluoromethyl)phenyl]methoxy}phenyl)-2-methyl-2H,4H,5H,6H,7H-pyrazolo[3,4-b]pyridin-6-one] was tested. Which IC50 did it give?
Answer: The IC50 was 100 to 1000 nM.

Question: For `COc1cc(-c2cc(=O)[nH]c3n[nH]cc23)ccc1OCc1ccc(C#N)cc1C(F)(F)F` [Example 181, 4-[(2-methoxy-4-{6-oxo-2H,6H, 7H-pyrazolo[3,4-b]pyridin-4-yl}phenoxy)methyl]-3-(trifluoromethyl)benzonitrile], which IC50 is on record?
Answer: The IC50 was 10 to 100 nM.

Question: For `COc1cc(C2CC(=O)Nc3n[nH]nc32)ccc1OCc1ccc(N)cc1C(F)(F)F` (centres unmarked) [Example 136, 7-(4-{[4-amino-2-(trifluoromethyl)phenyl]methoxy}-3-methoxyphenyl)-2H,4H,5H,6H, 7H-[1,2,3]triazolo[4,5-b]pyridin-5-one], which “mean pIC50” value is on record?
Answer: The value was no less than 8.

Question: How did the IC50 turn out when `COc1cc(OCc2ccccc2C(F)(F)F)ccc1C1CC(=O)Nc2n[nH]cc21` (centres unmarked) [Example 64, 4-(2-methoxy-4-{[2-(trifluoromethyl)phenyl]methoxy}phenyl)-2H,4H,5H,6H,7H-pyrazolo[3,4-b]pyridin-6-one] was run?
Answer: Its IC50 is 10 to 100 nM.

Question: For `COc1cc(C2CC(=O)Nc3ncsc32)ccc1OCc1ccccc1C(F)(F)F` (centres unmarked) [Example 88, 7-(3-methoxy-4-{[2-(trifluoromethyl)phenyl]methoxy}phenyl)-4H,5H,6H,7H-[1,3]thiazolo[4,5-b]pyridin-5-one], which IC50 is on record?
Answer: Its IC50 is 100 to 1000 nM.
